From patent US4211772A, “Benzopyran glycoside acetals and ketals” (Laboratoires Sarget, priority 1977, dated 1980)
Where two headings read alike, the source gives them in different places.

Assays:
Solubilities in water = format: physicochemical; settings: water; read-out: Solubilities in water
Aldose Reductase = biological target: T1, Aldose Reductase (Bos taurus, UniProt P16116); assay: Inhibition of aldose reductase in vitro (enzyme from beef eye lenses, glyceraldehyde substrate); format: biochemical; settings: in DMF solution, read-out: percentages of inhibition (aldose reductase)
T1 construct: The enzyme is extracted from beef eye lenses; from tissue; host or cells: beef eye lenses
Description: Inhibition of Aldose Reductase In Vitro
The reoxidation of NADPH coupled to the enzymatic reaction was followed spectrophotometrically at 340 nm.

[1] = Anti-inflammatory activity: carragenin edema test; format: in vivo; settings: rat, in vivo, ip, borate buffer pH 7
How it was run: (§1)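 Male Wistar EOPS rats receive 0.1 ml of 5% carragenin suspension in physiological serum into the hind-paw metatarsal muscle, with test substance given i.p. in neutralized solution at the same time. Paw edema is measured by plethysmometry at several times after carragenin and reported as % inhibition against pH-matched physiological serum controls.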

carragenin edema = assay: Anti-inflammatory activity: carragenin edema test; format: in vivo; settings: for % inhibition of carragenin edema: borate buffer pH 7, 24 h; for inhibition in vivo at 50 mg/kg / inhibition in vivo at 75 mg/kg / inhibition in vivo at 100 mg/kg / inhibition in vivo at 150 mg/kg: Rattus norvegicus, ip
How it was run: as §1

With C[C@@H]1O[C@@H](Oc2c(-c3ccc(O)c(O)c3)oc3cc(O)cc(O)c3c2=O)[C@@H]2OC3(CCCCC3)O[C@@H]2[C@H]1O [No. 7, 3-O-(2,3-O,O-cyclohexylidene-α-L-rhamnosyl)-quercetin] the solubility (Solubilities in water) was less than 100 µg/mL, the inhibition at 100 µM (Aldose Reductase; 10^-4 mole/l) was 91% and the inhibition at 10 µM (Aldose Reductase; 10^-5 mole/l) was 95%. It also gave an inhibition at 1 µM (Aldose Reductase; 10^-6 mole/l) of 84%, an inhibition at 0.1 µM (Aldose Reductase; 10^-7 mole/l) of 87% and a mortality at 24 h ([1]; 100 mg/kg i.p.) of 20%. The mortality at 5 h ([1]; 150 mg/kg i.p.) was 80%, the “% inhibition of carragenin edema” value (carragenin edema; 50 mg/kg i.p.) was 10% and the “% inhibition of carragenin edema” value (carragenin edema; 75 mg/kg i.p.) was 84%. The “% inhibition of carragenin edema” value (carragenin edema; 100 mg/kg i.p.) was 67%, the “% inhibition of carragenin edema” value (carragenin edema; 150 mg/kg i.p.) was 87% and the inhibition in vivo at 50 mg/kg (carragenin edema; 1 h, pH 7, read-out: % inhibition of carragenin edema, 50 mg/kg i.p., borate buffer pH 7, 1 h) was 14%. The inhibition in vivo at 50 mg/kg (carragenin edema; 1 h, pH 7, read-out: % inhibition of carragenin edema, 50 mg/kg i.p., borate buffer pH 7, 1 h 1/2) was 22%, the inhibition in vivo at 75 mg/kg (carragenin edema; 1 h, pH 7, read-out: % inhibition of carragenin edema, 75 mg/kg i.p., borate buffer pH 7, 1 h) was 73% and the inhibition in vivo at 75 mg/kg (carragenin edema; 1 h, pH 7, read-out: % inhibition of carragenin edema, 75 mg/kg i.p., borate buffer pH 7, 1 h 1/2) was 91%. It also gave an inhibition in vivo at 100 mg/kg (carragenin edema; 1 h, pH 7, read-out: % inhibition of carragenin edema, 100 mg/kg i.p., borate buffer pH 7, 1 h) of 51%, an inhibition in vivo at 100 mg/kg (carragenin edema; 1 h, pH 7, read-out: % inhibition of carragenin edema, 100 mg/kg i.p., borate buffer pH 7, 1 h 1/2) of 52% and an inhibition in vivo at 150 mg/kg (carragenin edema; 1 h, pH 7, read-out: % inhibition of carragenin edema, 150 mg/kg i.p., borate buffer pH 7, 1 h) of 89%. It also gave an inhibition in vivo at 150 mg/kg (carragenin edema; 1 h, pH 7, read-out: % inhibition of carragenin edema, 150 mg/kg i.p., borate buffer pH 7, 1 h 1/2) of 97%, an inhibition in vivo at 50 mg/kg (carragenin edema; 2 h, pH 7, read-out: % inhibition of carragenin edema, 50 mg/kg i.p., borate buffer pH 7, 2 h) of 16% and an inhibition in vivo at 75 mg/kg (carragenin edema; 2 h, pH 7, read-out: % inhibition of carragenin edema, 75 mg/kg i.p., borate buffer pH 7, 2 h) of 89%. It also gave an inhibition in vivo at 100 mg/kg (carragenin edema; 2 h, pH 7, read-out: % inhibition of carragenin edema, 100 mg/kg i.p., borate buffer pH 7, 2 h) of 48%, an inhibition in vivo at 150 mg/kg (carragenin edema; 2 h, pH 7, read-out: % inhibition of carragenin edema, 150 mg/kg i.p., borate buffer pH 7, 2 h) of 97% and an inhibition in vivo at 50 mg/kg (carragenin edema; 3 h, pH 7, read-out: % inhibition of carragenin edema, 50 mg/kg i.p., borate buffer pH 7, 3 h) of 23%. It also gave an inhibition in vivo at 75 mg/kg (carragenin edema; 3 h, pH 7, read-out: % inhibition of carragenin edema, 75 mg/kg i.p., borate buffer pH 7, 3 h) of 86%, an inhibition in vivo at 100 mg/kg (carragenin edema; 3 h, pH 7, read-out: % inhibition of carragenin edema, 100 mg/kg i.p., borate buffer pH 7, 3 h) of 45% and an inhibition in vivo at 150 mg/kg (carragenin edema; 3 h, pH 7, read-out: % inhibition of carragenin edema, 150 mg/kg i.p., borate buffer pH 7, 3 h) of 94%. The inhibition in vivo at 50 mg/kg (carragenin edema; 4 h, pH 7, read-out: % inhibition of carragenin edema, 50 mg/kg i.p., borate buffer pH 7, 4 h) was 21%, the inhibition in vivo at 75 mg/kg (carragenin edema; 4 h, pH 7, read-out: % inhibition of carragenin edema, 75 mg/kg i.p., borate buffer pH 7, 4 h) was 81% and the inhibition in vivo at 100 mg/kg (carragenin edema; 4 h, pH 7, read-out: % inhibition of carragenin edema, 100 mg/kg i.p., borate buffer pH 7, 4 h) was 46%. The inhibition in vivo at 150 mg/kg (carragenin edema; 4 h, pH 7, read-out: % inhibition of carragenin edema, 150 mg/kg i.p., borate buffer pH 7, 4 h) was 89%, the inhibition in vivo at 50 mg/kg (carragenin edema; 5 h, pH 7, read-out: % inhibition of carragenin edema, 50 mg/kg i.p., borate buffer pH 7, 5 h) was 7% and the inhibition in vivo at 75 mg/kg (carragenin edema; 5 h, pH 7, read-out: % inhibition of carragenin edema, 75 mg/kg i.p., borate buffer pH 7, 5 h) was 83%. The inhibition in vivo at 100 mg/kg (carragenin edema; 5 h, pH 7, read-out: % inhibition of carragenin edema, 100 mg/kg i.p., borate buffer pH 7, 5 h) was 45%, the inhibition in vivo at 150 mg/kg (carragenin edema; 5 h, pH 7, read-out: % inhibition of carragenin edema, 150 mg/kg i.p., borate buffer pH 7, 5 h) was 91% and the inhibition in vivo at 50 mg/kg (carragenin edema; 6 h, pH 7, read-out: % inhibition of carragenin edema, 50 mg/kg i.p., borate buffer pH 7, 6 h) was 6%. For the same compound, the inhibition in vivo at 75 mg/kg (carragenin edema; 6 h, pH 7, read-out: % inhibition of carragenin edema, 75 mg/kg i.p., borate buffer pH 7, 6 h) was 81%, the inhibition in vivo at 100 mg/kg (carragenin edema; 6 h, pH 7, read-out: % inhibition of carragenin edema, 100 mg/kg i.p., borate buffer pH 7, 6 h) was 43% and the inhibition in vivo at 150 mg/kg (carragenin edema; 6 h, pH 7, read-out: % inhibition of carragenin edema, 150 mg/kg i.p., borate buffer pH 7, 6 h) was 86%. It also gave an inhibition in vivo at 50 mg/kg (carragenin edema; read-out: % inhibition of carragenin edema, 50 mg/kg i.p., borate buffer pH 7, 1/2 h) of 0%, an inhibition in vivo at 75 mg/kg (carragenin edema; read-out: % inhibition of carragenin edema, 75 mg/kg i.p., borate buffer pH 7, 1/2 h) of 48% and an inhibition in vivo at 100 mg/kg (carragenin edema; read-out: % inhibition of carragenin edema, 100 mg/kg i.p., borate buffer pH 7, 1/2 h) of 21%. For the same compound, the inhibition in vivo at 150 mg/kg (carragenin edema; read-out: % inhibition of carragenin edema, 150 mg/kg i.p., borate buffer pH 7, 1/2 h) was 70%.
